One compound from patent US6716628B2, “Chondrogenesis promoters and indolin-2-one derivatives” (Chugai Seiyaku Kabushiki Kaisha, priority 1999, dated 2004) can be followed below.

For experiment [1], the system named is full thickness cartilage deficient rat models. Kind of experiment: Cartilage repair effect in full thickness cartilage deficient rat models. The format is in vivo. The following applies: 1.0 mmol/L, 50 μL intraarticular daily for 3 weeks from day 7 after operation. Here is the method:
A Kirschner wire with a 2.4 mm diameter (Mizuho Medical Instruments Corp.) was used to create a 2.5 mm-deep deficient area in the right femoral patellar surface, reaching to the marrow, in 10-week-old male CD rats (Nihon Charles River Co., Ltd.). From the seventh day after the operation, 50 μL of a 50% dimethylsulfoxide (DMSO) physiological saline solution as a solvent (DMSO: Junsei Chemical Corp.; physiological saline: Otsuka Pharmaceutical Corp.), or of a 1.0 mmol/L compound A solution, was administered into the right knee joint daily once a day for 3 weeks. The daily dosage of compound A was 81.7 μg.
On the day following the day of final administration, the right femur was taken, and fixed in 20% neutral buffered formaldehyde (Wako Pure Chemical Industries) for one week, and then demineralized for 2 weeks with 20% EDTA-4Na solution (pH 7.4, Wako Pure Chemical Industries), and the deficient area was trimmed with a razor (Feather Co., Ltd.). The trimmed area was subjected to paraffin blocking using an automatic embedding apparatus (Sakura Corp.) and paraffin (equivalent mixture of products by Kokusan Kagaku Corp. and Fisher Scientific Corp.). Here, a paraffin automatic dispensing embedding center (Miles Scientific Corp.) was used to fix each paraffin block in a tissue sample cassette (TISSUE-TEK Corp.)
Each paraffin block was cut into 2 μm-thick sections using a microtome (Daiwa Optical Instruments Corp.) and microtome knife (Feather Co., Ltd.), and then attached onto slide glass (Matsunami Glass Corp.) and dried. After drying, the sections were dipped in xylene to remove the paraffin, and then dipped in a step dilution series from ethanol to water and then stored in water. The sections were stained with 0.3% Safranin O (Merck Co.,.Ltd.) and observed with a microscope (magnification: 10× object lens), and a histological score was assigned according to a modification of the method of Wakitani et al. (J. Bone Joint Surg. 76-A, 579-592, 1994).

In experiment [2] the test system is common mouse chondrocyte and adipocyte precursor cell line (CL-1). Kind of experiment: Differentiation of CL-1 into chondrocytes, alcian blue/oil red O double staining. Type of experiment: cell-based. The following applies: 10 μmol/L, 7 days after confluency, vs vehicle control. Here is the method:
[…] (WO98/39414) were cultured in a 4-well chamber slide (Nunc Corp.) to a cell density of 5000/cm^2. The medium used was A-MEM (GIBCO Corp.) containing 100 U/mL of penicillin (Meiji Seika Co., Ltd.), 100 μg/mL of streptomycin (Banyu Pharmaceutical Corp.) and 10% fetal bovine serum (INTERGEN Corp.). When the CL-1 cells reached confluency, compound A was added to a final concentration of 10 μmol/L, with further addition when the medium was exchanged 3 times a week during culturing for 7 days.
A slide was also prepared with ethanol (Junsei Chemical Corp.) to a final concentration of 1% in the medium as a vehicle control. On the 7th day after confluency, the plates were collected, the CL-1 cell layer was double-stained with alcian blue and oil red O, and differentiation to chondrocytes or adipocytes was observed. After culturing was completed, the cell layer was fixed for one hour at room temperature with a 4% paraformaldehyde solution (Wako Pure Chemical Industries) and then washed with 0.1N hydrochloric acid and stained overnight with an aqueous solution (pH 1.0) of 1% alcian blue (EM Science Corp.). […]

Experiment [3] has as its system rat primary culture articular chondrocytes. Kind of experiment: Uptake of 3H-labeled thymidine (cell growth). The format is cell-based. The following applies: 10 μmol/L of compound, vs control solvent. The procedure: Articular chondrocytes were trimmed from the femoral knee joint of 6-week-old male SD rats (Nihon SLC Corp.) using a scalpel, and then digested in 0.3% collagenase (WORTHINGTON Corp.) and cultivated (Calcif. Tissue Int. 19:179-187,1975).
Uptake of ^3H-labeled thymidine (Amersham Corp.) was measured to determine the cell growth. For the measurement, the isolated articular chondrocytes were cultured in a 96-well cell culturing plate (FALCON Corp.) to a cell density of 10,000 per well. The medium used was an equivalent mixture of Dulbecco MEM containing fetal bovine serum (final concentration: 10%), 100 U/mL of penicillin (Meiji Seika Co., Ltd.) and 100 μg/mL of streptomycin (Banyu Pharmaceutical Corp.), and Ham F-12 medium (both by GIBCO Corp.). After 60-70% of the cells reached confluency, the medium was exchanged with one having a fetal bovine serum concentration of 0.3% and culturing was carried out overnight. On the following day, the medium was exchanged with the same type also containing compound A at a final concentration of 0.1, 1.0 or 10 μmol/L and 0.3% fetal bovine serum. […] The filter paper was soaked with plastic scintillator (Wallac Corp.), and the radioactivity was measured with a scintillation counter (Wallac Corp.). […]

Take `CCOC(CN1C(=O)[C@](CC(=O)Nc2ccc(C)cc2)(NC(=O)Nc2ccc(C)cc2)c2ccccc21)OCC` [Compound A, (+)-1-(2,2-diethoxyethyl)-3-((4-methylphenyl)aminocarbonylmethyl)-3-(N′-(4-methylphenyl)ureido)indolin-2-one]: the “repair of deficient areas (Safranin O staining)” value in experiment [1] is given as “exhibited repair in the Safranin O-positive cartilaginous tissue”. In addition, in experiment [1] (vs solvent alone), the “histological score: cell morphology” value was “significant decrease”, the “histological score: thickness of cartilage” value is listed as “significant decrease” and the histological total score result was “significant decrease”. Further, in experiment [2], the “differentiation of CL-1 to adipocytes (oil red O)” value is reported as “suppressed” and the “differentiation of CL-1 to chondrocytes (alcian blue)” value is “clearly promoted”. For the same compound, in experiment [3], the “uptake of 3H-labeled thymidine” value is reported as “significantly increased”.
